# Laboratory results reported in ChEMBL document CHEMBL1144867, “Antiviral amphipathic oligo- and polyribonucleotides: analogue development and biological studies” (J Med Chem, 2003).
# System: MRC5
# Assay: Inhibitory activity of compound against human cytomegalovirus (HCMV) in MRC-5 cells.
# Type: functional, cell-based
smiles,measurement,value
Nc1nc2c(ncn2COC(CO)CO)c(=O)[nH]1 [GANCICLOVIR],EC50,9.4 µM
